Assay results taken from ChEMBL document CHEMBL1201862, “PubChem BioAssay data set” (2004).
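1) Cells in 96-well plates. 2) Compound, 48 h, 5 concentrations. 3) Linear interpolation between surrounding doses. 4) Unreached endpoint = highest concentration. GI50 marks 50% less growth.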 The source made the active and inactive calls. No stated cut-off is given here; in the data, active = GI50 up to about 1.1 µM and inactive = higher.

Experiments:
Assay in all cases: NCI anticancer screen, dose series, 48 h
786-0 = test system: 786-0
A498 = test system: A498
A549 = test system: A549
ACHN = test system: ACHN
CAKI-1 = test system: CAKI-1
CCRF-CEM = test system: CCRF-CEM
COLO 205 = test system: COLO 205
DLD-1 = test system: DLD-1
DMS-114 = test system: DMS-114
EKVX = test system: EKVX
HCC 2998 = test system: HCC 2998
HCT-116 = test system: HCT-116
HCT-15 = test system: HCT-15
HL-60 = test system: HL-60
HOP-62 = test system: HOP-62
HOP-92 = test system: HOP-92
HT-29 = test system: HT-29
IGROV-1 = test system: IGROV-1
K562 = test system: K562
KM-20L2 = test system: KM-20L2
KM12 = test system: KM12
LOX IMVI = test system: LOX IMVI
LXFL 529 = test system: LXFL 529
M14 = test system: M14
M19-MEL = test system: M19-MEL
MOLT-4 = test system: MOLT-4
Malme-3M = test system: Malme-3M
NCI-H226 = test system: NCI-H226
NCI-H23 = test system: NCI-H23
NCI-H460 = test system: NCI-H460
OVCAR-3 = test system: OVCAR-3
OVCAR-4 = test system: OVCAR-4
OVCAR-5 = test system: OVCAR-5
OVCAR-8 = test system: OVCAR-8
RPMI-8226 = test system: RPMI-8226
RXF 393 = test system: RXF 393
SF-268 = test system: SF-268
SF-295 = test system: SF-295
SF-539 = test system: SF-539
SK-MEL-28 = test system: SK-MEL-28
SK-MEL-2 = test system: SK-MEL-2
SK-MEL-5 = test system: SK-MEL-5
SK-OV-3 = test system: SK-OV-3
SNB-19 = test system: SNB-19
SNB-75 = test system: SNB-75
SNB-78 = test system: SNB-78
SR = test system: SR
SW-620 = test system: SW-620
TK-10 = test system: TK-10
U-251 = test system: U-251
UACC-257 = test system: UACC-257
UACC-62 = test system: UACC-62
UO-31 = test system: UO-31
XF498 = test system: XF498
DMS-273 = test system: DMS-273
NCI-H522 = test system: NCI-H522
SN12C = test system: SN12C

**Q.** What does the source list for CC1CC(=O)C(CC(=O)O)C1C(C(=O)C(=O)Nc1c(C#N)cccc1[N+](=O)[O-])[N+](=O)[O-] (stereo unspecified)?
**A.** GI50 (786-0): > 100 µM (inactive); GI50 (A498): > 100 µM (inactive); GI50 (A549): > 100 µM (inactive); GI50 (ACHN): > 100 µM (inactive); GI50 (CAKI-1): > 100 µM (inactive); GI50 (CCRF-CEM): > 100 µM (inactive); GI50 (COLO 205): > 100 µM (inactive); GI50 (DLD-1): > 100 µM (inactive); GI50 (DMS-114): > 100 µM (inactive); GI50 (EKVX): > 100 µM (inactive); GI50 (HCC 2998): > 100 µM (inactive); GI50 (HCT-116): > 100 µM (inactive); GI50 (HCT-15): > 100 µM; GI50 (HL-60): > 100 µM (inactive); GI50 (HOP-62): > 100 µM (inactive); GI50 (HOP-92): 82.2 µM (inactive); GI50 (HT-29): > 100 µM (inactive); GI50 (IGROV-1): > 100 µM (inactive); GI50 (K562): > 100 µM (inactive); GI50 (KM-20L2): > 100 µM (inactive); GI50 (KM12): > 100 µM (inactive); GI50 (LOX IMVI): > 100 µM (inactive); GI50 (LXFL 529): > 100 µM (inactive); GI50 (M14): > 100 µM (inactive); GI50 (M19-MEL): > 100 µM (inactive); GI50 (MOLT-4): > 100 µM (inactive); GI50 (Malme-3M): > 100 µM (inactive); GI50 (NCI-H226): > 100 µM (inactive); GI50 (NCI-H23): > 100 µM (inactive); GI50 (NCI-H460): > 100 µM (inactive); GI50 (OVCAR-3): > 100 µM (inactive); GI50 (OVCAR-4): > 100 µM (inactive); GI50 (OVCAR-5): > 100 µM (inactive); GI50 (OVCAR-8): > 100 µM (inactive); GI50 (RPMI-8226): > 100 µM (inactive); GI50 (RXF 393): > 100 µM (inactive); GI50 (SF-268): > 100 µM (inactive); GI50 (SF-295): > 100 µM (inactive); GI50 (SF-539): > 100 µM (inactive); GI50 (SK-MEL-28): > 100 µM (inactive); GI50 (SK-MEL-2): > 100 µM (inactive); GI50 (SK-MEL-5): > 100 µM (inactive); GI50 (SK-OV-3): > 100 µM (inactive); GI50 (SNB-19): > 100 µM (inactive); GI50 (SNB-75): > 100 µM (inactive); GI50 (SNB-78): 80.4 µM (inactive); GI50 (SR): > 100 µM (inactive); GI50 (SW-620): > 100 µM (inactive); GI50 (TK-10): > 100 µM (inactive); GI50 (U-251): > 100 µM (inactive); GI50 (UACC-257): > 100 µM (inactive); GI50 (UACC-62): > 100 µM (inactive); GI50 (UO-31): 57.3 µM (inactive); GI50 (XF498): > 100 µM (inactive)

**Q.** How did the GI50 (786-0) turn out when CCCC(=O)N[C@@H](Cc1cc(I)c(O)c(I)c1)C(=O)NCCCNCCCCNCCCNC(=O)[C@@H](N)CCCN=C(N)N was run?
**A.** 73.3 µM (inactive)

**Q.** What about the GI50 (A549) of the same molecule?
**A.** > 100 µM (inactive)

**Q.** And the GI50 (ACHN)?
**A.** 40.1 µM (inactive)

**Q.** What about the GI50 (CCRF-CEM) of the same molecule?
**A.** > 100 µM (inactive)

**Q.** And the GI50 (COLO 205)?
**A.** 40.6 µM (inactive)

**Q.** What about the GI50 (DMS-114) of the same molecule?
**A.** > 100 µM (inactive)

**Q.** And the GI50 (DMS-273)?
**A.** 27.4 µM (inactive)

**Q.** And the GI50 (EKVX)?
**A.** > 100 µM (inactive)

**Q.** What about the GI50 (HCC 2998) of the same molecule?
**A.** 42.3 µM (inactive)

**Q.** And the GI50 (HCT-116)?
**A.** 67 µM (inactive)

**Q.** What about the GI50 (HCT-15) of the same molecule?
**A.** > 100 µM

**Q.** What about the GI50 (HL-60) of the same molecule?
**A.** 33.7 µM (inactive)

**Q.** What about the GI50 (HOP-62) of the same molecule?
**A.** 33.8 µM (inactive)

**Q.** And the GI50 (HT-29)?
**A.** > 100 µM (inactive)

**Q.** And the GI50 (IGROV-1)?
**A.** 29 µM (inactive)

**Q.** And the GI50 (K562)?
**A.** 45.1 µM (inactive)

**Q.** What about the GI50 (KM-20L2) of the same molecule?
**A.** > 100 µM (inactive)

**Q.** And the GI50 (KM12)?
**A.** 55 µM (inactive)

**Q.** What about the GI50 (LOX IMVI) of the same molecule?
**A.** 94 µM (inactive)

**Q.** And the GI50 (LXFL 529)?
**A.** 78 µM (inactive)

**Q.** And the GI50 (M14)?
**A.** 25.7 µM (inactive)

**Q.** And the GI50 (M19-MEL)?
**A.** 40.1 µM (inactive)

**Q.** And the GI50 (MOLT-4)?
**A.** 71.6 µM (inactive)

**Q.** And the GI50 (Malme-3M)?
**A.** > 100 µM (inactive)

**Q.** What about the GI50 (NCI-H226) of the same molecule?
**A.** > 100 µM (inactive)

**Q.** What about the GI50 (NCI-H23) of the same molecule?
**A.** 31.4 µM (inactive)

**Q.** And the GI50 (NCI-H460)?
**A.** 34.2 µM (inactive)

**Q.** What about the GI50 (NCI-H522) of the same molecule?
**A.** 11.2 µM (inactive)

**Q.** What about the GI50 (OVCAR-3) of the same molecule?
**A.** > 100 µM (inactive)

**Q.** And the GI50 (OVCAR-8)?
**A.** > 100 µM (inactive)

**Q.** And the GI50 (RPMI-8226)?
**A.** 40.6 µM (inactive)

**Q.** And the GI50 (RXF 393)?
**A.** > 100 µM (inactive)

**Q.** And the GI50 (SF-268)?
**A.** > 10 µM (inactive)

**Q.** What about the GI50 (SF-295) of the same molecule?
**A.** > 10 µM (inactive)

**Q.** And the GI50 (SF-539)?
**A.** 10.4 µM (inactive)

**Q.** What about the GI50 (SK-MEL-28) of the same molecule?
**A.** 50.4 µM (inactive)

**Q.** And the GI50 (SK-MEL-5)?
**A.** 36.6 µM (inactive)

**Q.** What about the GI50 (SN12C) of the same molecule?
**A.** > 100 µM (inactive)

**Q.** What about the GI50 (SNB-19) of the same molecule?
**A.** > 100 µM (inactive)

**Q.** And the GI50 (SR)?
**A.** > 100 µM (inactive)

**Q.** What about the GI50 (SW-620) of the same molecule?
**A.** > 100 µM (inactive)

**Q.** And the GI50 (TK-10)?
**A.** > 100 µM (inactive)

**Q.** What about the GI50 (U-251) of the same molecule?
**A.** > 100 µM (inactive)

**Q.** What about the GI50 (UACC-257) of the same molecule?
**A.** > 100 µM (inactive)

**Q.** And the GI50 (UACC-62)?
**A.** 44.9 µM (inactive)

**Q.** And the GI50 (UO-31)?
**A.** 29.8 µM (inactive)

**Q.** And the GI50 (XF498)?
**A.** > 100 µM (inactive)
